Test results from patent US10005733B2, “N-(4-hydroxy-4-methyl-cyclohexyl)-4-phenyl-benzenesulfonamide and N-(4-hydroxy-4-methyl-cyclohexyl)-4-(2-pyridyl)-benzenesulfonamide compounds and their therapeutic use” (PIMCO 2664 LIMITED, priority 2014, dated 2018).

Columns and labels:
[1] = system: human primary osteoclasts; test: Human Primary Osteoclastogenesis (TRAP-positive multinucleated cells from CD14+ monocytes); type: cell-based; conditions: 1 μM; compound added on Day 4 of monocyte differentiation
Protocol: In vitro potency of test compounds was determined by incubating them with human primary monocytes and assessing effects on the formation of mature osteoclasts.
The activity of the compounds in reducing the formation of human primary osteoclasts (osteoclastogenesis) was tested using monocytes derived from human whole blood. Monocytes, which are positive for the cell surface marker CD14, are part of the innate immune system found in the circulation. Peripheral blood monocytes differentiate to form several cell types, including osteoclasts. Human primary osteoclasts were […] macrophage colony-stimulating factor (M-CSF) and RANKL+10% foetal calf serum for approximately 6 days, with the exact duration depending on the individual donor of the cells.
When monocytes are cultured under the conditions described above, they form large, multinucleated cells (osteoclasts), which stain positively for tartrate-resistant acid phosphatase (TRAP). TRAP staining was performed between Days 5-6 of culture depending on the individual donor. Osteoclasts are identified as cells which stain positive for TRAP and contain more than 3 nuclei. Compounds which reduce the number of TRAP-positive cells reduce the formation of osteoclasts. The bisphosphonate compound, alendronate, which is used in the treatment of osteoporosis, is used as a positive control for reducing osteoclastogenesis in this assay.
Effects on osteoclast formation were assessed by staining for TRAP and counting cells containing more than three nuclei in each well under a microscope. This allows the absolute determination of cell number in each treated well.
PBMCs (peripheral blood mononuclear cells) were collected from healthy donors and isolated by centrifugation on a layer of Ficoll Paque (GE Healthcare, UK). Monocytes were then sorted from the PBMCs using an autoMACS Pro Separator (MiltenyiBiotec), which sorts cells depending on the markers present on their cell surface. The resulting CD14+ monocytes were resuspended in αMEM supplemented with 10% FCS, 25 ng/mL M-CSF and 100 ng/ml RANKL and added to a 48-well plate, which was then incubated for up to 6 days at 37° C./5% CO2. […] The medium was replenished every 2 days.
At the end of the culture period, the medium was removed from the cells and the cells were fixed at room temperature and then washed with phosphate-buffered saline. TRAP staining solution was then added and the cells incubated at 37° C. until a red colour had developed, after which the reaction was stopped by rinsing with water. The stained cells were air-dried and then photographed using a conventional microscope and the TRAP-positive multinucleated osteoclasts counted by two independent observers.
The average results (n=6) for each concentration of test compound were averaged between the two observers and then expressed as a fold change versus the average control value. The data were then plotted graphically using software from Grafit (Erithacus Software).

[2] = Rodent Pharmacokinetics Studies; type: in vivo, rat; conditions: male Han Wistar rats; for i.v. AUC: 1 mg/kg intravenous, 5% DMSO/10% solutol in saline; for bioavailability: rat, plasma, 5 mg/kg, oral in 0.5% CMC/0.1% Tween-80, i.v. in 5% DMSO/10% solutol in saline, read-out: Bioavail, F (%)
Protocol: Absorption and metabolic stability were studied using an in vivo pharmacokinetics assay.
[…] […] For compound HMC-C-01-A the oral administration was formulated in 2% dimethylacetamide/20% hydroxypropyl-β-cyclodextrin in water. Animals were given free access to food throughout the study except for fasting overnight and until 2 hours post dose on the day of dosing.
Blood samples were taken from the retro-orbital plexus at the following time points and placed in microtubes containing 20% K2EDTA solution: […]
Blood samples were centrifuged to obtain plasma, which was transferred to a separate container and frozen at −20° C.
For analysis, samples were thawed at room temperature and prepared by protein precipitation with acetonitrile spiked with internal standard (500 ng/mL glipizide) in the ratio 1:4 with plasma. The samples were then vortexed for 5 minutes and centrifuged for 10 minutes at 20,600×g at 4° C. 100 μL of the supernatant was collected for analysis.
The pharmacokinetic parameters for the test compounds were calculated by Phoenix WinNonlin version 6.3 (Pharsight Corp, CA) using standard non-compartmental methods. Peak plasma concentrations (Cmax) and time of the peak plasma concentration (Tmax) were the observed values. The area under the plasma concentration-time curve (AUC) was determined by use of the linear trapezoidal rule up to the last measurable concentration (AUClast) and thereafter by extrapolation of the terminal elimination phase to infinity (AUCinf). The terminal elimination rate constant (kel) was determined by regression analysis of the linear terminal portion of the log plasma concentration-time curve. The elimination phase half-life (t1/2) was calculated as 0.693/kel.

[3] = system: J774 macrophages; test: Resazurin Macrophage J774 Viability Assay; type: cell-based; conditions: Mus musculus, J774, 72 h; footnote (1): 10 point range 30 μM to 1.5 nM, n = 3 per concentration, Grafit; 72 hour incubation
Protocol: Potency was assessed using a viability assay based on the survival of the J774 macrophage cell line. Macrophages are closely related to osteoclasts and have been used previously as a model system for osteoclast survival (see, e.g., Luckman et al., 1998, “Heterocycle-containing bisphosphonates cause apoptosis and inhibit bone resorption by preventing protein prenylation: evidence from structure-activity relationships in J774 macrophages,” J. Bone Miner. Res., Vol. 13, pp. 1668-1678). The model is indicative both of effects on bone protection in diseases such as osteoporosis, osteoarthritis and rheumatoid arthritis, and of effects on inflammation since, like osteoclasts, J774 macrophages are dependent for survival on continued NFκB activation.
In vitro potency of test compounds was determined by incubation with J774 macrophages and subsequent determination of cell viability using resazurin.
Resazurin is a redox dye commonly used as an indicator of viability in cultured cells (see, e.g., Anoopkumar-Dukie, 2005, “Resazurin assay of radiation response in cultured cells”, British Journal of Radiology, Vol. 78, pp. 945-947). It is non-toxic to cells and stable in culture medium, allowing continuous measurement of cell proliferation in vitro as either a kinetic or endpoint assay. The assay is based on the ability of viable, metabolically-active cells to reduce resazurin (which is blue and non-fluorescent) to resorufin and dihydroresorufin (which are red and fluorescent) using electrons from reducing species, such as nicotinamide […] and flavin adenine dinucleotide (FADH). This transformation, from oxidised form to reduced form, can be measured either colorimetrically or fluorometrically. Insults that impair cell viability and proliferation also affects the capacity of cells to reduce resazurin, and the rate of dye reduction is directly proportional to the number of viable cells present.
For fluorescence measurements, 530-560 nm excitation and 590 nm emission wavelengths are typically used. For colorimetric measurements, absorbance at 570 nm (reduced form) and 600 nm (oxidised form) is typically measured. A simple calculation is performed to determine the relative quantities of the two species: a high ratio of resorufin (the reduced form) to resazurin (the oxidised form) is an indicator that cells are proliferating and viable. A low ratio indicates cells that are quiescent or non-viable.
J774 cells were plated at 10^4 cells per well in 100 μL αMEM (α Modified Eagle Medium) in 96-well plates and allowed to adhere overnight. The following day, test compounds were prepared as 100 mM solutions in DMSO. These stock solutions were diluted in DMSO and then diluted 1000× in culture medium (αMEM) before being added directly to the wells so as to give the desired final compound concentration. After a 72 hour incubation at 37° C./5% CO2, resazurin (Alamar Blue, Biosource International) was added to each well (1:10 v/v, 10 μL). The plate was then incubated at 37° C. for 3 hours and fluorescence was measured at 590 nm, with a 25 nm bandwidth.
The average results for each test compound were expressed as a percent (%) of the average control value reflecting cell viability. The average values across the concentrations tested were then plotted and an IC50 was calculated by fitting the data to a 4-parameter IC50 equation using either Graph Pad Prism software for Windows (Graph Pad Software, San Diego Calif. USA) or Grafit version 5 (Erithacus Software). Each experiment was repeated twice and the data are presented as the mean IC50 from both experiments.

[4] = 5 mg/kg orally, 0.5% CMC/0.1% Tween-80

Structure (SMILES): NCCCC(O)(P(=O)(O)O)P(=O)(O)O [Alendronate, alendronate]
- % reduction at 1 μM [1]: 12%

Structure (SMILES): Cc1cc(S(=O)(=O)NC2CCC(C)(O)CC2)ccc1-c1ccc(F)cc1F (single isomer, unassigned) [REF001, reference compound]
- i.v. AUC [2]: 963 ng/mL/min
- p.o. AUC (ng/mL/min) [2, 4]: 4766 ^(4) ng/mL/min
- bioavailability [2]: 50%
- IC50 [3]: 50 nM

Structure (SMILES): O=S(=O)(N[C@H]1CC[C@H](O)CC1)c1ccc(-c2ncc(Cl)cc2Cl)cc1 [ABD836, reference compound]
- i.v. AUC [2]: 2142 ng/mL/min
- p.o. AUC [2, 4]: 5927 ng/mL/min
- bioavailability [2]: 55%
- IC50 [3]: 1450 nM
